Data from patent US20090018111A1, “Novel Antimicrobial Medicament” (priority 2004, published 2009).
Where two headings read alike, the source gives them in different places.

Experiments:
Assay in all cases: Sensitivity test (agar dilution), clinical isolate
Assay type in all cases: cell-based, Pseudomonas aeruginosa
P. aeruginosa 12789 = system: P. aeruginosa 12789
Protocol: (§1) In addition, the antibacterial activities were tested against strains which are comparatively less sensitive to β-lactam compounds, namely clinically isolated 13 strains of Acinetobacter calcoaceticus and Acinetobacter lwoffi, clinically isolated 11 strains of Serratia marcescens, clinically isolated 12 strains of Burkholderia cepacia, and clinically isolated 15 strains of Pseudomonas aeruginosa.
(§2) According to the standard method of Japan Chemotherapeutic Society (Chemotherapy, vol. […], p 76-79 (1981)) the test was carried out using the agar dilution method. After dissolving test samples in distilled water, agar medium containing the test samples was prepared in such a manner that the final concentration became twice serial dilution by pouring serially diluted combination drug solution or a single drug solution into agar medium. As agar medium was used Mueller Hinton Agar medium (MHA). Then, each strain was cultivated over night at 37° C. in an incubator and suspended in buffered saline solution with gelatin (BSG) in the concentration of about 10^6 CFU/ml. The suspension (about 5 μl) containing test strains was inoculated to the medium containing the test samples by Micro Planter.
(§3) Each drug was weighed, and dissolved in distilled water to give a test sample. When the drugs are used in combination, two kinds of solution containing each drug were mixed so as to be various ratio of concentration to give a mixed solution. When the sample is subjected to sensitivity test, this mixed solution was diluted by twice serial dilution method.
(§4) Furthermore, when the drug is solely used, each test sample was used as it is, and diluted by twice serial dilution method from the maximum concentration to the minimum concentration.

P. aeruginosa 12790 = system: P. aeruginosa 12790
Protocol: as §1, §2, §3, §4

P. aeruginosa 13221 = system: P. aeruginosa 13221
Protocol: as §1, §2, §3, §4

P. aeruginosa 13224 = system: P. aeruginosa 13224
Protocol: as §1, §2, §3, §4

P. aeruginosa 13245 = system: P. aeruginosa 13245
Protocol: as §1, §2, §3, §4

P. aeruginosa 13250 = system: P. aeruginosa 13250
Protocol: as §1, §2, §3, §4

P. aeruginosa 13269 = system: P. aeruginosa 13269
Protocol: as §1, §2, §3, §4

P. aeruginosa 13272 = system: P. aeruginosa 13272
Protocol: as §1, §2, §3, §4

P. aeruginosa 13280 = system: P. aeruginosa 13280
Protocol: as §1, §2, §3, §4

P. aeruginosa 13285 = system: P. aeruginosa 13285
Protocol: as §1, §2, §3, §4

P. aeruginosa 15019 = system: P. aeruginosa 15019
Protocol: as §1, §2, §3, §4

P. aeruginosa 15032 = system: P. aeruginosa 15032
Protocol: as §1, §2, §3, §4

P. aeruginosa 15036 = system: P. aeruginosa 15036
Protocol: as §1, §2, §3, §4

P. aeruginosa 15039 = system: P. aeruginosa 15039
Protocol: as §1, §2, §3, §4

P. aeruginosa 15040 = system: P. aeruginosa 15040
Protocol: as §1, §2, §3, §4

## C[C@@H](O)[C@H]1C(=O)N2C(C(=O)O)=C(S[C@@H]3CN[C@H](C(=O)N(C)C)C3)[C@H](C)[C@H]12 [MEPM, meropenem]
P. aeruginosa 12789; Pseudomonas aeruginosa, 12789, Concomitant (ME:SM = 1:1)
  MIC: 0.5 µg/mL
P. aeruginosa 12789; Pseudomonas aeruginosa, 12789, Concomitant (ME:SM = 1:2)
  MIC: 0.5 µg/mL
P. aeruginosa 12789; Pseudomonas aeruginosa, 12789, Concomitant (ME:SM = 1:4)
  MIC: 0.5 µg/mL
P. aeruginosa 12789; Pseudomonas aeruginosa, 12789, Concomitant (ME:SM = 2:1)
  MIC: 0.5 µg/mL
P. aeruginosa 12789; Pseudomonas aeruginosa, 12789, alone
  MIC: 0.5 µg/mL
P. aeruginosa 12790; Pseudomonas aeruginosa, 12790
  MIC: 0.125 µg/mL
P. aeruginosa 12790; Pseudomonas aeruginosa, 12790, Concomitant (ME:SM = 1:1), read-out: MIC
  MIC: 0.063 µg/mL
P. aeruginosa 12790; Pseudomonas aeruginosa, 12790, Concomitant (ME:SM = 1:4), read-out: MIC
  MIC: 0.063 µg/mL
P. aeruginosa 12790; Pseudomonas aeruginosa, 12790, Concomitant (ME:SM = 2:1), read-out: MIC
  MIC: 0.031 µg/mL
P. aeruginosa 12790; Pseudomonas aeruginosa, 12790, alone, read-out: MIC
  MIC: 0.063 µg/mL
P. aeruginosa 13221; Concomitant (ME:SM = 1:1)
  MIC: 0.125 µg/mL
P. aeruginosa 13221; Concomitant (ME:SM = 1:2)
  MIC: 0.125 µg/mL
P. aeruginosa 13221; Pseudomonas aeruginosa, 13221
  MIC: 0.125 µg/mL
P. aeruginosa 13221; Pseudomonas aeruginosa, 13221, Concomitant (ME:SM = 1:4), read-out: MIC
  MIC: 0.063 µg/mL
P. aeruginosa 13221; Pseudomonas aeruginosa, 13221, Concomitant (ME:SM = 2:1), read-out: MIC
  MIC: 0.063 µg/mL
P. aeruginosa 13224; Pseudomonas aeruginosa, 13224, Concomitant (ME:SM = 1:1)
  MIC: 4 µg/mL
P. aeruginosa 13224; Pseudomonas aeruginosa, 13224, Concomitant (ME:SM = 1:2)
  MIC: 2 µg/mL
P. aeruginosa 13224; Pseudomonas aeruginosa, 13224, Concomitant (ME:SM = 1:4)
  MIC: 2 µg/mL
P. aeruginosa 13224; Pseudomonas aeruginosa, 13224, Concomitant (ME:SM = 2:1)
  MIC: 4 µg/mL
P. aeruginosa 13224; Pseudomonas aeruginosa, 13224, alone
  MIC: 4 µg/mL
P. aeruginosa 13245; Pseudomonas aeruginosa, 13245, Concomitant (ME:SM = 1:1)
  MIC: 2 µg/mL
P. aeruginosa 13245; Pseudomonas aeruginosa, 13245, Concomitant (ME:SM = 1:2)
  MIC: 1 µg/mL
P. aeruginosa 13245; Pseudomonas aeruginosa, 13245, Concomitant (ME:SM = 1:4)
  MIC: 2 µg/mL
P. aeruginosa 13245; Pseudomonas aeruginosa, 13245, Concomitant (ME:SM = 2:1)
  MIC: 2 µg/mL
P. aeruginosa 13245; Pseudomonas aeruginosa, 13245, alone
  MIC: 2 µg/mL
P. aeruginosa 13250; Pseudomonas aeruginosa, 13250, Concomitant (ME:SM = 1:1)
  MIC: 0.5 µg/mL
P. aeruginosa 13250; Pseudomonas aeruginosa, 13250, Concomitant (ME:SM = 1:2)
  MIC: 0.25 µg/mL
P. aeruginosa 13250; Pseudomonas aeruginosa, 13250, Concomitant (ME:SM = 1:4)
  MIC: 0.5 µg/mL
P. aeruginosa 13250; Pseudomonas aeruginosa, 13250, Concomitant (ME:SM = 2:1)
  MIC: 0.5 µg/mL
P. aeruginosa 13250; Pseudomonas aeruginosa, 13250, alone
  MIC: 0.5 µg/mL
P. aeruginosa 13269; Pseudomonas aeruginosa, 13269, Concomitant (ME:SM = 1:1)
  MIC: 4 µg/mL
P. aeruginosa 13269; Pseudomonas aeruginosa, 13269, Concomitant (ME:SM = 1:2)
  MIC: 2 µg/mL
P. aeruginosa 13269; Pseudomonas aeruginosa, 13269, Concomitant (ME:SM = 1:4)
  MIC: 2 µg/mL
P. aeruginosa 13269; Pseudomonas aeruginosa, 13269, Concomitant (ME:SM = 2:1)
  MIC: 4 µg/mL
P. aeruginosa 13269; Pseudomonas aeruginosa, 13269, alone
  MIC: 4 µg/mL
P. aeruginosa 13272; Pseudomonas aeruginosa, 13272, Concomitant (ME:SM = 1:1)
  MIC: 4 µg/mL
P. aeruginosa 13272; Pseudomonas aeruginosa, 13272, Concomitant (ME:SM = 1:2)
  MIC: 2 µg/mL
P. aeruginosa 13272; Pseudomonas aeruginosa, 13272, Concomitant (ME:SM = 1:4)
  MIC: 2 µg/mL
P. aeruginosa 13272; Pseudomonas aeruginosa, 13272, Concomitant (ME:SM = 2:1)
  MIC: 4 µg/mL
P. aeruginosa 13272; Pseudomonas aeruginosa, 13272, alone
  MIC: 4 µg/mL
P. aeruginosa 13280; Pseudomonas aeruginosa, 13280, Concomitant (ME:SM = 1:1)
  MIC: 4 µg/mL
P. aeruginosa 13280; Pseudomonas aeruginosa, 13280, Concomitant (ME:SM = 1:2)
  MIC: 4 µg/mL
P. aeruginosa 13280; Pseudomonas aeruginosa, 13280, Concomitant (ME:SM = 1:4)
  MIC: 4 µg/mL
P. aeruginosa 13280; Pseudomonas aeruginosa, 13280, Concomitant (ME:SM = 2:1)
  MIC: 8 µg/mL
P. aeruginosa 13280; Pseudomonas aeruginosa, 13280, alone
  MIC: 8 µg/mL
P. aeruginosa 13285; Pseudomonas aeruginosa, 13285, Concomitant (ME:SM = 1:1)
  MIC: 4 µg/mL
P. aeruginosa 13285; Pseudomonas aeruginosa, 13285, Concomitant (ME:SM = 1:2)
  MIC: 4 µg/mL
P. aeruginosa 13285; Pseudomonas aeruginosa, 13285, Concomitant (ME:SM = 1:4)
  MIC: 4 µg/mL
P. aeruginosa 13285; Pseudomonas aeruginosa, 13285, Concomitant (ME:SM = 2:1)
  MIC: 4 µg/mL
P. aeruginosa 13285; Pseudomonas aeruginosa, 13285, alone
  MIC: 4 µg/mL
P. aeruginosa 15019; Pseudomonas aeruginosa, 15019, Concomitant (ME:SM = 1:1)
  MIC: 4 µg/mL
P. aeruginosa 15019; Pseudomonas aeruginosa, 15019, Concomitant (ME:SM = 1:2)
  MIC: 4 µg/mL
P. aeruginosa 15019; Pseudomonas aeruginosa, 15019, Concomitant (ME:SM = 1:4)
  MIC: 2 µg/mL
P. aeruginosa 15019; Pseudomonas aeruginosa, 15019, Concomitant (ME:SM = 2:1)
  MIC: 4 µg/mL
P. aeruginosa 15019; Pseudomonas aeruginosa, 15019, alone
  MIC: 4 µg/mL
P. aeruginosa 15032; Pseudomonas aeruginosa, 15032, Concomitant (ME:SM = 1:1)
  MIC: 2 µg/mL
P. aeruginosa 15032; Pseudomonas aeruginosa, 15032, Concomitant (ME:SM = 1:2)
  MIC: 1 µg/mL
P. aeruginosa 15032; Pseudomonas aeruginosa, 15032, Concomitant (ME:SM = 1:4)
  MIC: 2 µg/mL
P. aeruginosa 15032; Pseudomonas aeruginosa, 15032, Concomitant (ME:SM = 2:1)
  MIC: 2 µg/mL
P. aeruginosa 15032; Pseudomonas aeruginosa, 15032, alone
  MIC: 2 µg/mL
P. aeruginosa 15036; Pseudomonas aeruginosa, 15036, Concomitant (ME:SM = 1:1)
  MIC: 2 µg/mL
P. aeruginosa 15036; Pseudomonas aeruginosa, 15036, Concomitant (ME:SM = 1:2)
  MIC: 1 µg/mL
P. aeruginosa 15036; Pseudomonas aeruginosa, 15036, Concomitant (ME:SM = 1:4)
  MIC: 2 µg/mL
P. aeruginosa 15036; Pseudomonas aeruginosa, 15036, Concomitant (ME:SM = 2:1)
  MIC: 2 µg/mL
P. aeruginosa 15036; Pseudomonas aeruginosa, 15036, alone
  MIC: 2 µg/mL
P. aeruginosa 15039; Pseudomonas aeruginosa, 15039, Concomitant (ME:SM = 1:1)
  MIC: 8 µg/mL
P. aeruginosa 15039; Pseudomonas aeruginosa, 15039, Concomitant (ME:SM = 1:2)
  MIC: 8 µg/mL
P. aeruginosa 15039; Pseudomonas aeruginosa, 15039, Concomitant (ME:SM = 1:4)
  MIC: 4 µg/mL
P. aeruginosa 15039; Pseudomonas aeruginosa, 15039, Concomitant (ME:SM = 2:1)
  MIC: 8 µg/mL
P. aeruginosa 15039; Pseudomonas aeruginosa, 15039, alone
  MIC: 8 µg/mL
P. aeruginosa 15040; Pseudomonas aeruginosa, 15040, Concomitant (ME:SM = 1:1)
  MIC: 4 µg/mL
P. aeruginosa 15040; Pseudomonas aeruginosa, 15040, Concomitant (ME:SM = 1:2)
  MIC: 2 µg/mL
P. aeruginosa 15040; Pseudomonas aeruginosa, 15040, Concomitant (ME:SM = 1:4)
  MIC: 2 µg/mL
P. aeruginosa 15040; Pseudomonas aeruginosa, 15040, Concomitant (ME:SM = 2:1)
  MIC: 4 µg/mL
P. aeruginosa 15040; Pseudomonas aeruginosa, 15040, alone
  MIC: 4 µg/mL
